{"source": "ChEMBL document CHEMBL3507680", "about": "“University of Dundee, Gates Library screen for HepG2 cell viability”", "data": [{"assay": "Human HepG2 cell viability assay in 384 well format", "type": "toxicity, cell-based", "set-up": "dose 125 nL, time 70.5 hour; concentration not given beside the values", "conditions": "HepG2 cells, read-out: Inhibition", "units": {"cytotoxicity at 70.5 h": "%"}, "values": [{"compound": "Cc1nc(CN2CCCC(CCc3ccccc3C)C2)c[nH]1", "note": "(centres undefined)", "cytotoxicity at 70.5 h": 19}, {"compound": "COc1ccccc1OCCCn1c(C)c(C)oc1=O", "cytotoxicity at 70.5 h": 2.36}, {"compound": "COc1ccccc1OCCCc1cc(C)nc(N)n1", "cytotoxicity at 70.5 h": -7.2}, {"compound": "Cc1cc(C(=O)N2C[C@H]3CC[C@@H]2CN(Cc2ccccn2)C3)nc(C)n1", "cytotoxicity at 70.5 h": -0.674}, {"compound": "O=C(NCCC1CCCCO1)c1cc(COc2ccccc2F)[nH]n1", "note": "(centres undefined)", "cytotoxicity at 70.5 h": -4.49}, {"compound": "COc1cc(NCCCSc2nnc(C)s2)ncn1", "cytotoxicity at 70.5 h": 12}, {"compound": "CN(C)c1ccccc1C(=O)N1C[C@@H](CN2CCC(O)CC2)[C@@H](CO)C1", "cytotoxicity at 70.5 h": 1.37}, {"compound": "Cc1ccsc1CN(CCCC(F)(F)F)Cc1ccccn1", "cytotoxicity at 70.5 h": -10.1}, {"compound": "Cc1cc(-c2nn(C)c(Cl)c2CN2CCC3(CC2)[C@H](O)C[C@@H]3O)no1", "cytotoxicity at 70.5 h": -4.3}, {"compound": "CN(C)C(=O)c1ccc(-c2cccc3c2CCNC3)cc1", "cytotoxicity at 70.5 h": -18}, {"compound": "COc1cc(CNc2nc3c(c(=O)[nH]2)CCNC3)cc(OC)c1OC", "cytotoxicity at 70.5 h": -6.47}, {"compound": "CC(C)=CCC1(C(=O)O)CCCN(c2cc(N)ncn2)C1", "note": "(centres undefined)", "cytotoxicity at 70.5 h": 6.26}, {"compound": "Cc1ccc(C(C)NCc2cn(CCC(N)=O)c3ccccc23)cc1C", "note": "(centres undefined)", "cytotoxicity at 70.5 h": -3.87}, {"compound": "Cc1nn(C)c2nc(N3CCN(Cc4nccn4C)CC3)sc12", "cytotoxicity at 70.5 h": -8.28}, {"compound": "CCCc1nc(CN(CC)C(=O)c2ccc3[nH]cnc3c2)no1", "cytotoxicity at 70.5 h": 23.9}, {"compound": "CCN(Cc1noc(CC(C)C)n1)Cc1ncccc1C(=O)O", "cytotoxicity at 70.5 h": -3.41}, {"compound": "CCc1nnc(CNC2CCN(c3ncnc4c(C)csc34)CC2)s1", "cytotoxicity at 70.5 h": -1.72}, {"compound": "COc1nccnc1N1CCN(Cc2cccc(C)c2)C(=O)C1", "cytotoxicity at 70.5 h": 7}, {"compound": "CCC[C@H]1CN(S(C)(=O)=O)C[C@@H]1NC(=O)CCCn1ccnc1", "cytotoxicity at 70.5 h": 1.51}, {"compound": "O=C(NCCCn1cccn1)C1CCC(=O)N(CC2CCCCC2)C1", "note": "(centres undefined)", "cytotoxicity at 70.5 h": -2.08}, {"compound": "CCC(CO)N(Cc1ccsc1)Cc1ccccc1C#N", "note": "(centres undefined)", "cytotoxicity at 70.5 h": -11.3}, {"compound": "COc1cccc(-c2nc3c([nH]2)CC(C)(C)CNC3=O)c1OC", "cytotoxicity at 70.5 h": -9.59}, {"compound": "CN(CCc1ccccn1)C(=O)C1Cc2ccccc2CN1C", "note": "(centres undefined)", "cytotoxicity at 70.5 h": -10.6}, {"compound": "CC(C)c1cc(-c2cnn(C)c2C2CC2)c(C#N)c(N)n1", "cytotoxicity at 70.5 h": -0.849}, {"compound": "CCOCCC(=O)N1C[C@H]2CC[C@@H]1CN(Cc1ccncc1)C2", "cytotoxicity at 70.5 h": -11.6}, {"compound": "Nc1ccnc(N2CCC(Cc3ccccc3Cl)(C(=O)O)CC2)n1", "cytotoxicity at 70.5 h": 1.15}, {"compound": "COC(=O)c1ccc(-c2noc(CN(CCO)Cc3cccs3)n2)cc1", "cytotoxicity at 70.5 h": -10.2}, {"compound": "COCCn1ccnc1C1CCCN(c2ncnc3c(C)csc23)C1", "note": "(centres undefined)", "cytotoxicity at 70.5 h": 23.8}, {"compound": "Cc1ccc(C(=O)N2CC(c3cccnc3)C2)cc1N1CCNC1=O", "cytotoxicity at 70.5 h": -7.03}, {"compound": "CN(C)[C@H]1CCCCN(C(=O)COCc2nc3cc(F)ccc3[nH]2)C1", "cytotoxicity at 70.5 h": 15}, {"compound": "COCC(=O)N1CCCN(Cc2c(C)nc3ccc(Cl)cn23)CC1", "cytotoxicity at 70.5 h": 2.35}, {"compound": "CN1CCc2[nH]nc(C(=O)N3CCC4(CCCO4)CC3)c2C1", "cytotoxicity at 70.5 h": -0.824}, {"compound": "COc1ccccc1OC1CCN(C(=O)c2c[nH]c(=O)[nH]c2=O)CC1", "cytotoxicity at 70.5 h": -4.88}, {"compound": "O=C(COCC(F)(F)C(F)F)N1CCC(c2ncc[nH]2)CC1", "cytotoxicity at 70.5 h": -5.35}, {"compound": "COCCN1CC(C(=O)N(CCN(C)C)Cc2ccc(C)s2)CC1=O", "note": "(centres undefined)", "cytotoxicity at 70.5 h": -4.05}, {"compound": "CN1CCN2CCN(Cc3cnc(NCc4ccccc4)nc3)CC2C1", "note": "(centres undefined)", "cytotoxicity at 70.5 h": 24}, {"compound": "CCC(CC)n1nc(C)cc1NC(=O)C1CCCO1", "note": "(centres undefined)", "cytotoxicity at 70.5 h": -8.67}, {"compound": "CC(NCc1cc(O)c2cccc(F)c2n1)c1ccc(S(C)(=O)=O)cc1", "note": "(centres undefined)", "cytotoxicity at 70.5 h": -12.6}, {"compound": "Cn1cc(CN2CC[C@@H]3[C@@H](CCC(=O)N3CCc3ccccc3)C2)cn1", "cytotoxicity at 70.5 h": -0.863}, {"compound": "Cc1cnc(C(=O)N2CCN(C(=O)C(C)C)[C@@H]3CS(=O)(=O)C[C@@H]32)cn1", "cytotoxicity at 70.5 h": -6.02}, {"compound": "CCNCCOc1ccc(-c2cc(N)nc3[nH]ccc23)cc1", "cytotoxicity at 70.5 h": -10.1}, {"compound": "CC(=O)NCCC(=O)N(C/C=C/c1ccccc1)CCO", "cytotoxicity at 70.5 h": 24}, {"compound": "COc1cc(N2CCCC(c3nccn3Cc3cccnc3)C2)ncn1", "note": "(centres undefined)", "cytotoxicity at 70.5 h": -14.5}, {"compound": "CSc1nnc(CC2CCN(C(=O)Cc3ccncc3)CC2)n1C", "cytotoxicity at 70.5 h": -16.8}]}]}
